Experimental data reported in patent US9999222B2, “Herbicidal combination comprising azines” (BASF SE, priority 2014, dated 2018).
“And” between values parts separate entries of the source, which are not always exact repeats. Identical values can stand only once. Like-named read-outs stand apart in the source and are kept apart here.

Assays:
Test in all cases: Greenhouse test, pre-emergence treatment
[1] = tested on: EPHHL; type: in vivo, Euphorbia heterophylla; conditions: Euphorbia heterophylla, pre-emergence, 480 h, pre-emergence, 250 g ai/ha; read-out: observed % activity 20 DAT
Summary of the method: (§1)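 Seeds were sown in loamy sand with approximately 3.0% humus, then sprayed at once with actives suspended or emulsified in water. Pots were watered, hooded until rooting, held at 10-25° C. or 20-35° C. by species for 2 to 4 weeks, and scored 0 (no damage) to 100 (no emergence/complete destruction).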

[2] = tested on: GALAP; type: in vivo, Galium aparine; conditions: Galium aparine, pre-emergence, 480 h; for inhibition at 125 g/ha: 125 g ai/ha
Summary of the method: as §1

[3] = tested on: BRADC; type: in vivo, Brachiaria decumbens
Summary of the method: as §1

[4] = tested on: ECHCG; type: in vivo, Echinocloa crus-galli; conditions: Echinochloa crus-galli, 480 h, read-out: observed % activity 20 DAT
Summary of the method: as §1

[5] = tested on: AVEFA; type: in vivo, Avena fatua; conditions: for inhibition at 125 g/ha / inhibition at 250 g/ha: Avena fatua, 480 h; for inhibition at 125 g/ha: 125 g ai/ha
Summary of the method: as §1

[6] = tested on: PHACA; type: in vivo, Phalaris canariensis; conditions: for inhibition at 250 g/ha: 250 g ai/ha
Summary of the method: as §1

[7] = tested on: LOLMU; type: in vivo, Lolium multiflorum; conditions: pre-emergence
Summary of the method: as §1

[8] = tested on: POLCO; type: in vivo, Polygonum convolvulus; conditions: Fallopia convolvulus, pre-emergence, 480 h, pre-emergence
Summary of the method: as §1

[9] = tested on: KCHSC; type: in vivo, Kochia scoparia; conditions: Bassia scoparia, pre-emergence, 480 h, pre-emergence, 125 g ai/ha; read-out: observed % activity 20 DAT
Summary of the method: as §1

[10] = tested on: ELEIN; type: in vivo, Eleusine indica; conditions: Eleusine indica, 480 h, read-out: observed % activity 20 DAT
Source text: The culture containers used were plastic flowerpots containing loamy sand with approximately 3.0% of humus as the substrate. The seeds of the test plants were sown separately for each species.
For the pre-emergence treatment, the active ingredients, which had been suspended or emulsified in water, were applied directly after sowing by means of finely distributing nozzles. The containers were irrigated gently to promote germination and growth and subsequently covered with transparent plastic hoods until the plants had rooted. This cover caused uniform germination of the test plants, unless this had been impaired by the active ingredients.
Depending on the species, the plants were kept at 10-25° C. or 20-35° C., respectively.
The test period extended over 2 to 4 weeks. During this time, the plants were tended, and their response to the individual treatments was evaluated.
Evaluation was carried out using a scale from 0 to 100. 100 means no emergence of the plants, or complete destruction of at least the aerial moieties, and 0 means no damage, or normal course of growth. A moderate herbicidal activity is given at values of at least 60, a good herbicidal activity is given at values of at least 70, and a very good herbicidal activity is given at values of at least 85.
The respective stated components a and b, and if appropriate, c were formulated as a 10% by weight strength emulsion concentrate and, with addition of the amount of solvent system, introduced into the spray liquor used for applying the active compound.
In the examples, the solvent used was water.
In the examples below, using the method of S. R. Colby (1967) “Calculating synergistic and antagonistic responses of herbicide combinations”, Weeds 15, p. 22ff., the value E, which is expected if the activity of the individual active compounds is only additive, was calculated. E=X+Y−(X·Y/100) where • X=percent activity using active compound a at an application rate A; • Y=percent activity using active compound b at an application rate B; • E=expected activity (in %) by a+b at application rates A+B.
If the value found experimentally is higher than the value E calculated according to Colby, a synergistic effect is present.

[11] = tested on: COMBE; type: in vivo, Commelina benghalensis; conditions: Commelina benghalensis, pre-emergence, 480 h, pre-emergence, 250 g ai/ha; read-out: observed % activity 20 DAT
Summary of the method: as §1

[12] = tested on: ALOMY; type: in vivo, Alopecurus myosuroides
Summary of the method: as §1

[13] = 62, 5 g ai/ha, 20 DAT, read-out: observed % activity

Question: How did the inhibition at 250 g/ha [1] turn out when CSc1nnc(C(C)(C)C)c(=O)n1N [metribuzin] was run?
Answer: 85%

Question: What about the inhibition at 125 g/ha ([2]; 20 DAT, read-out: observed % activity) of the same compound?
Answer: 30%

Question: And the inhibition at 250 g/ha ([2]; 250 g ai/ha, 20 DAT, read-out: observed % activity)?
Answer: 30%

Question: What about the inhibition at 125 g/ha ([2]; read-out: observed % activity 20 DAT) of the same compound?
Answer: 20%

Question: What about the pest or weed control at 62.5 g/ha [2, 13] of the same compound?
Answer: 30%

Question: What about the observed % activity ([3]; 62, 5 g ai/ha, 20 DAT) of the same compound?
Answer: 50%

Question: What about the inhibition at 62.5 g/ha ([3]; Urochloa decumbens, pre-emergence, 480 h, pre-emergence, 62.5 g ai/ha, read-out: observed % activity 20 DAT) of the same compound?
Answer: 45%

Question: What about the “observed % activity 20 DAT” value ([3]; pre-emergence, 250 g ai/ha) of the same compound?
Answer: 40%

Question: And the inhibition at 125 g/ha ([4]; 125 g ai/ha)?
Answer: 80%

Question: And the inhibition at 250 g/ha ([4]; 250 g ai/ha)?
Answer: 95%

Question: What about the observed % activity ([5]; 62, 5 g ai/ha, 20 DAT) of the same compound?
Answer: 0%

Question: What about the inhibition at 125 g/ha ([5]; pre-emergence, 20 DAT, read-out: observed % activity) of the same compound?
Answer: 10%

Question: And the inhibition at 250 g/ha ([5]; pre-emergence, 250 g ai/ha, 20 DAT, read-out: observed % activity)?
Answer: 55%

Question: And the inhibition at 125 g/ha ([5]; pre-emergence, pre-emergence, read-out: observed % activity 20 DAT)?
Answer: 80%

Question: What about the inhibition at 250 g/ha ([5]; pre-emergence, pre-emergence, 250 g ai/ha, read-out: observed % activity 20 DAT) of the same compound?
Answer: 70%

Question: And the “observed % activity 20 DAT” value ([5]; pre-emergence, 250 g ai/ha)?
Answer: 65%

Question: And the observed % activity ([6]; 62, 5 g ai/ha, 20 DAT)?
Answer: 30%

Question: And the inhibition at 125 g/ha ([6]; Phalaris canariensis, pre-emergence, 480 h, 125 g ai/ha, 20 DAT, read-out: observed % activity)?
Answer: 70%

Question: What about the inhibition at 250 g/ha ([6]; Phalaris canariensis, pre-emergence, 480 h, 20 DAT, read-out: observed % activity) of the same compound?
Answer: 90%

Question: And the inhibition at 62.5 g/ha ([6]; Phalaris canariensis, pre-emergence, 480 h, pre-emergence, 62.5 g ai/ha, read-out: observed % activity 20 DAT)?
Answer: 15%

Question: What about the inhibition at 125 g/ha ([6]; Phalaris canariensis, pre-emergence, 480 h, pre-emergence, 125 g ai/ha, read-out: observed % activity 20 DAT) of the same compound?
Answer: 65%

Question: And the inhibition at 250 g/ha ([6]; Phalaris canariensis, pre-emergence, 480 h, pre-emergence, read-out: observed % activity 20 DAT)?
Answer: 95%

Question: What about the “observed % activity 20 DAT” value ([6]; pre-emergence, 125 g ai/ha) of the same compound?
Answer: 75%

Question: What about the inhibition at 125 g/ha ([7]; Lolium multiflorum, 480 h, 125 g ai/ha, 20 DAT, read-out: observed % activity) of the same compound?
Answer: 60%

Question: What about the inhibition at 250 g/ha ([7]; Lolium multiflorum, 480 h, 250 g ai/ha, 20 DAT, read-out: observed % activity) of the same compound?
Answer: 90%

Question: What about the inhibition at 62.5 g/ha ([7]; Lolium multiflorum, 480 h, 62.5 g ai/ha, read-out: observed % activity 20 DAT) of the same compound?
Answer: 0%

Question: And the inhibition at 125 g/ha ([7]; Lolium multiflorum, 480 h, 125 g ai/ha, read-out: observed % activity 20 DAT)?
Answer: 55%

Question: And the “observed % activity 20 DAT” value ([7]; 125 g ai/ha)?
Answer: 65%

Question: And the “observed % activity 20 DAT” value ([7]; 250 g ai/ha)?
Answer: 45% and 75%

Question: What about the inhibition at 125 g/ha ([8]; 125 g ai/ha, read-out: observed % activity 20 DAT) of the same compound?
Answer: 20%

Question: What about the inhibition at 250 g/ha ([8]; 250 g ai/ha, read-out: observed % activity 20 DAT) of the same compound?
Answer: 20%

Question: What about the pest or weed control at 62.5 g/ha [8, 13] of the same compound?
Answer: 0%

Question: And the inhibition at 125 g/ha [9]?
Answer: 95%

Question: And the inhibition at 125 g/ha ([10]; 125 g ai/ha)?
Answer: 98%

Question: What about the inhibition at 250 g/ha ([10]; 250 g ai/ha) of the same compound?
Answer: 98%

Question: What about the inhibition at 250 g/ha [11] of the same compound?
Answer: 90%

Question: What about the observed % activity ([12]; 62, 5 g ai/ha, 20 DAT) of the same compound?
Answer: 35%

Question: And the inhibition at 250 g/ha ([12]; Alopecurus myosuroides, pre-emergence, 480 h, 250 g ai/ha, 20 DAT, read-out: observed % activity)?
Answer: 98%

Question: What about the inhibition at 62.5 g/ha ([12]; Alopecurus myosuroides, pre-emergence, 480 h, pre-emergence, 62.5 g ai/ha, read-out: observed % activity 20 DAT) of the same compound?
Answer: 0%

Question: What about the inhibition at 125 g/ha ([12]; Alopecurus myosuroides, pre-emergence, 480 h, pre-emergence, 125 g ai/ha, read-out: observed % activity 20 DAT) of the same compound?
Answer: 80%

Question: And the inhibition at 250 g/ha ([12]; Alopecurus myosuroides, pre-emergence, 480 h, pre-emergence, 250 g ai/ha, read-out: observed % activity 20 DAT)?
Answer: 90%

Question: What about the “observed % activity 20 DAT” value ([12]; pre-emergence, 250 g ai/ha) of the same compound?
Answer: 75%
